The results in this text go back to patent US20040106663A1, “Inhibitors of fungal invasion” (priority 2002, published 2004).

SMILES strings stand for the structures.

Assay [1] relates to C. albicans. Kind of assay: Mouse model of fungal invasion, kidney histology score (Compound III in diet). Format: in vivo. Particulars: mice, powdered diet supplemented from t=−24 h to t=48 h, FIG. 2. Here is the method: A mouse model of fungal invasion was used to examine the in vivo efficacy of orally administered Compound III in reducing invasion by C. albicans. Briefly, one day prior to infection (t=−24 h) mice were switched to a powdered diet supplemented Compound III (treatment mice) or no supplement (control mice). This diet was continued until the mice were sacrificed at t=48 h. The kidneys of the mice were then examined for histologic signs of fungal invasion. In the scoring system used, a score of 5 indicates the presence of many, large fungus-dominated lesions, a score of 3 indicates the presence of many inflammatory lesion and fungus-dominated lesion of mixed size, and a score of 1 indicates few, mainly inflammatory lesions.

Assay [2] relates to C. albicans. Description: Mouse model of fungal invasion, kidney lesion count (Compound II, IP and oral). The assay is classed as in vivo. Particulars: mice, 1 mg IP and oral repeated, 2×10^6 C. albicans, sacrifice about t=19 h, FIG. 1. Here is the method: A mouse model of fungal invasion was used to examine the in vivo efficacy of Compound II in reducing invasion by C. albicans.
Briefly, 30 min prior to infection (t=−30 min) 1 mg of Compound II in buffer (10 treatment mice) or buffer only (10 control mice) was administered IP. At t=0 all mice were inoculated with 2×10^6 C. albicans. At t=6 h and t=14 h the IP treatment with Compound II or buffer was repeated. In addition, at t=2, t=4 h, t=10 h, and t=18 h 1 mg of Compound II or buffer only was administered orally. The mice were sacrificed at about t=19 h and the kidneys of the mice were examined for histologic signs of fungal invasion by counting the number of lesions.

With `Cc1cc(NS(=O)(=O)c2ccc(-c3ccc(F)cc3F)cc2)no1` [Compound III], in the assay with C. albicans [1], the “kidney histology score (severity of fungal invasion)” value is recorded as “decreases severity of fungal invasion relative to the control”. In the case of `CCCNc1ccc(S(=O)(=O)Nc2cc(C)on2)cc1` [Compound II], in the assay with C. albicans [2], the “number of lesions on kidneys” value was “decreases the number of lesion relative to the control”.
